Laboratory results reported in patent US11266626B2, “Reduction of ER-MAM-localized APP-C99 and methods of treating alzheimer's disease” (THE TRUSTEES OF COLUMBIA UNIVERSITY IN THE CITY OF NEW YORK, priority 2015, dated 2022).
Entries after “also recorded” stand apart in the source; their conditions may differ.

Columns and labels:
FAD fibroblasts = test: Seahorse analysis of mitochondrial respiration (OCR); format: cell-based, human; settings: FAD patient fibroblasts; BI
Procedure: (§1) Respirometry of cultured cells was performed using the XF24e Extracellular Flux Analyzer (Seahorse Bioscience). Oxygen consumption was measured in basal conditions (Seahorse media with 25 mM glucose and 2 mM pyruvate) and after the sequential addition of 1 μM oligomycin (Complex V inhibitor), 0.75 μM FCCP (uncoupler) and 1 μM rotenone/1 μM antimycin A (Complex I and Complex III inhibitors respectively).
(§2) Respirometry of cultured cells was performed using the XF24e Extracellular Flux Analyzer (Seahorse Bioscience). Oxygen consumption was measured in basal conditions (Seahorse media with 25 mM glucose and 2 mM pyruvate) and after the sequential addition of 1 μM oligomycin (complex V inhibitor), 0.75 μM FCCP (uncoupler), and 1 μM rotenone/1 μM antimycin A (complex I and complex III inhibitors, respectively). All results were averages of five or more biological replicates. Every biological replicate consisted of three technical replicates. For every technical replicate, we plated equal number of cells (25,000 cell/well when MEFs were used, and 50,000 cells/well when human primary fibroblasts were analyzed). The number of cells was also counted after every respirometry assay to correct for cell death. All oxygen consumption (OCR) data were normalized by the number of viable cells or by protein quantity when isolated mitochondria were used.

SH-SY5Y cells = test: as above; format: cell-based, human; settings: 10 μM DAPT vs untreated
Procedure: as §1, §2

SMILES	mitochondrial respiration (OCR) (FAD fibroblasts)	mitochondrial respiration (OCR) (SH-SY5Y cells)
C[C@@H](NC(=O)c1cc(C(=O)N[C@@H](Cc2ccccc2)[C@H](O)CNC2CC2)cc(N(C)S(C)(=O)=O)c1)c1ccccc1 [BI, β-secretase inhibitor IV]	reversed the defect in mitochondrial respiration; also recorded: rescued the respiration defects	–
C[C@H](NC(=O)Cc1cc(F)cc(F)c1)C(=O)N[C@H](C(=O)OC(C)(C)C)c1ccccc1 [DAPT]	–	significant decrease in respiration; also recorded: significant reduction in respiration
